Source: patent publication US20130102595A1 (Curis, Inc., priority 2011, published 2013)

Columns and labels:
[1] = system: HDACs (HeLa cell nuclear extracts); test: HDAC enzymatic activity, Biomol Color de Lys system; assay type: biochemical; conditions: 1 hour, 25° C.
Method in brief: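 HeLa nuclear extract incubated with serially diluted compound and […] artificial substrate in 50 mM Tris/Cl pH 8.0, 137 mM NaCl, 2.7 mM KCl, 1 mM MgCl2. Run 1 h at 25 °C, stopped with developer. Fluorescence read (ex 350-380, em 440-460 nm); IC50 from sigmoidal dose-response fit.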

PI3Kα (p110α/p85α) = biological target: T1, PI3Kα (p110α/p85α) (Homo sapiens, UniProt P42336); test: PI3Kα ADP-Glo assay; assay type: biochemical; conditions: 20 μM PIP2, 10 μM ATP, 30 minutes
T1 construct: GST (N); made in house; host or cells: Baculovirus-infected Sf9 cells
Method in brief: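 Recombinant full-length human GST-p110α/His-p85α, co-expressed in Sf9 cells, was incubated 30 min at room temperature with 20 μM PIP2 and 10 μM ATP. The buffer was 50 mM HEPES pH 7.4, 150 mM NaCl, 5 mM MgCl2, 1 mM DTT, 3 µM orthovanadate and 0.5% DMSO. ADP formed was detected by ADP-Glo luminescence.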

T1 sequence (P42336 whole entry): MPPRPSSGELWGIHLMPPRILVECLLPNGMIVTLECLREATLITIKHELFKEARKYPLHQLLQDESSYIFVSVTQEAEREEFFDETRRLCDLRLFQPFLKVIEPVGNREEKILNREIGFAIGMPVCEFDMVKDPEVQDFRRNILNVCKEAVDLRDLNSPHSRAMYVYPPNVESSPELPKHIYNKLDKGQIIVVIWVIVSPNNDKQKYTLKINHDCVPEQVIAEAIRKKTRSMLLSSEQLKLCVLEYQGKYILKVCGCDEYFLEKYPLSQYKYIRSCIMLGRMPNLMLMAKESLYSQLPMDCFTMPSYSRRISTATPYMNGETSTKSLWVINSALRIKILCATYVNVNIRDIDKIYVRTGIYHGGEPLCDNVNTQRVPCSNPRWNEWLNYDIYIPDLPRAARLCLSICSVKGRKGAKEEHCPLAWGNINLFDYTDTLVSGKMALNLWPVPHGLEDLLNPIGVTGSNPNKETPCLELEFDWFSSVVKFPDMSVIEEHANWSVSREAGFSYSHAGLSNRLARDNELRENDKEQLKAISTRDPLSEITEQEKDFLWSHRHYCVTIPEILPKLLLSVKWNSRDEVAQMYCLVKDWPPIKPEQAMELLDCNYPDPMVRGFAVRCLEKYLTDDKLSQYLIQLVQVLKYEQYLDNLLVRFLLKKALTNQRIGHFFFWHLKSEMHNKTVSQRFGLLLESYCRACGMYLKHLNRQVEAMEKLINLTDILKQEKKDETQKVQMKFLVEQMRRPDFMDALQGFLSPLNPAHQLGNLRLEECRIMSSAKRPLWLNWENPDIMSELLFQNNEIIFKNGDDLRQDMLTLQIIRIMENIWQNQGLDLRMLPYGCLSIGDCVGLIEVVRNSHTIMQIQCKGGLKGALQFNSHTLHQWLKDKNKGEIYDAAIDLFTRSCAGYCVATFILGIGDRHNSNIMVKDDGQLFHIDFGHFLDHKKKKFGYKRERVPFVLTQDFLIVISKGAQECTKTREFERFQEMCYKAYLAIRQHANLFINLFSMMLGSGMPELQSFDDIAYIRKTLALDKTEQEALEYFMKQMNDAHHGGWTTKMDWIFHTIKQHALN
T1 sequence (P27986 whole entry partner): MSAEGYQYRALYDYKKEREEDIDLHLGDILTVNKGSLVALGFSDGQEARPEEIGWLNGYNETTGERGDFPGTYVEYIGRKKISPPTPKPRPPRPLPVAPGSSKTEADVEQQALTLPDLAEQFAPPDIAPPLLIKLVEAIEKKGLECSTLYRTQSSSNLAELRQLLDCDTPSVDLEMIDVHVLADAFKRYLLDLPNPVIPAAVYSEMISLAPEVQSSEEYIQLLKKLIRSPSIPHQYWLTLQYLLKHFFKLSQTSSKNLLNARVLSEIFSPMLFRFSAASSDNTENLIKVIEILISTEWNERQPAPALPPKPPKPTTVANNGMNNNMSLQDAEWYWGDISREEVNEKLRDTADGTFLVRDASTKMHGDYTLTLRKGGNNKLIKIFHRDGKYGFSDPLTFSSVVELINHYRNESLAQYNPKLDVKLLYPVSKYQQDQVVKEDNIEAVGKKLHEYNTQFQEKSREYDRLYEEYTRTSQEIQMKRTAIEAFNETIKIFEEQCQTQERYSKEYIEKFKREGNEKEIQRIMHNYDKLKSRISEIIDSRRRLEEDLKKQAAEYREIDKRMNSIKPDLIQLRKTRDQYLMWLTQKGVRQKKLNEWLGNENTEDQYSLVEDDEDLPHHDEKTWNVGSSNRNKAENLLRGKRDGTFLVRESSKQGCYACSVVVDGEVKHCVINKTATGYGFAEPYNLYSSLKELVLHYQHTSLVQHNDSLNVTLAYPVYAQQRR

IC50 [1] [nM] | IC50 (PI3Kα (p110α/p85α)) [nM] | melting point | Structure (SMILES)
< 100 | < 100 | 248 to 252 °C | Cc1ncc(-c2nc(N3CCOCC3)c3sc(NCCCCC(=O)NO)cc3n2)cn1 [Compound 229, N-Hydroxy-5-(2-(2-methylpyrimidin-5-yl)-4-morpholinothieno[3,2-d]pyrimidin-6-ylamino)pentanamide]
< 100 | > 10000 | 168 to 170 °C | CN(Cc1cc2nc(-c3ccc(F)cc3)nc(N3CCOCC3)c2s1)c1ncc(C(=O)NO)cn1 [Compound 200, 2-(((2-(4-fluorophenyl)-4-morpholinothieno[3,2-d]pyrimidin-6-yl)methyl)(methyl)amino)-N-hydroxypyrimidine-5-carboxamide]
100 to 1000 | 100 to 1000 | 119 to 122 °C | O=C(CCCCCCN1CCN(Cc2cc3nc(-c4cccc5[nH]ncc45)nc(N4CCOCC4)c3s2)CC1)NO [Compound 13, 7-(4-((2-(1H-indazol-4-yl)-4-morpholinothieno[3,2-d]pyrimidin-6-yl)methyl)piperazin-1-yl)-N-hydroxyheptanamide]
< 100 | 1000 to 10000 | 145 to 147 °C | O=C(CCCCNCc1cc2nc(-c3cccc4[nH]ncc34)nc(N3CCOCC3)c2s1)NO [Compound 42, 5-((2-(1H-indazol-4-yl)-4-morpholinothieno[3,2-d]pyrimidin-6-yl)methylamino)-N-hydroxypentanamide]
< 100 | 100 to 1000 | 195 to 197 °C | CN(Cc1cc2nc(-c3ccc(N)cc3F)nc(N3CCOCC3)c2s1)c1ncc(C(=O)NO)cn1 [Compound 283, 2-{[2-(4-Amino-2-fluoro-phenyl)-4-morpholin-4-yl-thieno[3,2-d]pyrimidin-6-ylmethyl]-methyl-amino}-pyrimidine-5-carboxylic acid hydroxyamide]
< 100 | 100 to 1000 | 173 to 176 °C | CN(Cc1cc2nc(-c3ccccc3CO)nc(N3CCOCC3)c2s1)c1ncc(C(=O)NO)cn1 [Compound 141, N-hydroxy-2-(((2-(2-(hydroxymethyl)phenyl)-4-morpholinothieno[3,2-d]pyrimidin-6-yl)methyl)(methyl)amino)pyrimidine-5-carboxamide]
1000 to 10000 | 100 to 1000 | 240 to 242 °C | CC(C)(C)CN(Cc1cc2nc(-c3cccc4[nH]ncc34)nc(N3CCOCC3)c2s1)c1ncc(C(=O)NO)cn1 [Compound 83, 2-(((2-(1H-indazol-4-yl)-4-morpholinothieno[3,2-d]pyrimidin-6-yl)methyl)(neopentyl)amino)-N-hydroxypyrimidine-5-carboxamide]
100 to 1000 | > 10000 | 142 to 145 °C | CS(=O)(=O)N1CCN(Cc2cc3nc(-c4cccc5[nH]ncc45)nc(N4CCN(CCCCC(=O)NO)CC4)c3s2)CC1 [Compound 30, 5-(4-(2-(1H-indazol-4-yl)-6-((4-(methylsulfonyl)piperazin-1-yl)methyl)thieno[3,2-d]pyrimidin-4-yl)piperazin-1-yl)-N-hydroxypentanamide]
< 100 | 100 to 1000 | 180 to 183 °C | O=C(NO)c1ccc(NCc2cc3nc(-c4cccc5[nH]ncc45)nc(N4CCOCC4)c3s2)cc1 [Compound 78, 4-((2-(1H-indazol-4-yl)-4-morpholinothieno[3,2-d]pyrimidin-6-yl)methylamino)-N-hydroxybenzamide]
< 100 | 1000 to 10000 | 172 to 175 °C | CN(C)c1cccc(-c2nc(N3CCOCC3)c3sc(CN(C)c4ncc(C(=O)NO)cn4)cc3n2)c1 [Compound 108, 2-(((2-(3-(dimethylamino)phenyl)-4-morpholinothieno[3,2-d]pyrimidin-6-yl)methyl)(methyl)amino)-N-hydroxypyrimidine-5-carboxamide]
< 100 | > 10000 | 199 to 200 °C | CN(Cc1cc2nc(-c3ccccc3)nc(N3CCOCC3)c2s1)c1ncc(C(=O)NO)cn1 [Compound 129, N-hydroxy-2-(methyl((4-morpholino-2-phenylthieno[3,2-d]pyrimidin-6-yl)methyl)amino)pyrimidine-5-carboxamide]
< 100 | 100 to 1000 | 179 to 182 °C | CN(Cc1cc2nc(-c3cccc(N)c3)nc(N3CCOCC3)c2s1)c1ncc(C(=O)NO)cn1 [Compound 134, 2-(((2-(3-aminophenyl)-4-morpholinothieno[3,2-d]pyrimidin-6-yl)methyl)(methyl)amino)-N-hydroxypyrimidine-5-carboxamide]
< 100 | > 10000 | 270 °C (dec.) | CN(Cc1cc2nc(-c3ccc4c(c3)CC(=O)N4)nc(N3CCOCC3)c2s1)c1ncc(C(=O)NO)cn1 [Compound 194, N-hydroxy-2-(methyl((4-morpholino-2-(2-oxoindolin-5-yl)thieno[3,2-d]pyrimidin-6-yl)methyl)amino)pyrimidine-5-carboxamide]
100 to 1000 | 100 to 1000 | 140 to 142 °C | CS(=O)(=O)N1CCN(Cc2cc3nc(-c4ccc(OCCCCCC(=O)NO)cc4)nc(N4CCOCC4)c3s2)CC1 [Compound 320, N-Hydroxy-6-(4-(6-((4-(methylsulfonyl)piperazin-1-yl)methyl)-4-morpholinothieno[3,2-d]pyrimidin-2-yl)phenoxy)hexanamide]

Second part, the molecule before the results:

Structure (SMILES) | IC50 [1] [nM] | IC50 (PI3Kα (p110α/p85α)) [nM] | melting point
CN(Cc1cc2nc(-c3ccc(N)c(F)c3)nc(N3CCOCC3)c2s1)c1ncc(C(=O)NO)cn1 [Compound 276, 2-(((2-(4-Amino-3-fluorophenyl)-4-morpholinothieno[3,2-d]pyrimidin-6-yl)methyl)(methyl)amino)-N-hydroxypyrimidine-5-carboxamide] | < 100 | < 100 | 203 to 206 °C
CN(Cc1cc2nc(-c3ccc(N)c(N)c3)nc(N3CCOCC3)c2s1)c1ncc(C(=O)NO)cn1 [Compound 156, 2-(((2-(3,4-diaminophenyl)-4-morpholinothieno[3,2-d]pyrimidin-6-yl)methyl)(methyl)amino)-N-hydroxypyrimidine-5-carboxamide] | < 100 | 100 to 1000 | 222 to 225 °C
Nc1ccc(-c2nc(N3CCOCC3)c3sc(S(=O)(=O)Nc4ncc(C(=O)NO)cn4)cc3n2)cc1 [Compound 271, 2-[2-(4-Amino-phenyl)-4-morpholin-4-yl-thieno[3,2-d]pyrimidine-6-sulfonylamino]-pyrimidine-5-carboxylic acid hydroxyamide] | < 100 | < 100 | 197 to 205 °C
Nc1ccc(-c2nc(N3CCOCC3)c3sc(C(=O)NCC4CCN(c5ncc(C(=O)NO)cn5)CC4)cc3n2)cc1 [Compound 307, 2-(4-Aminophenyl)-N-((1-(5-(hydroxycarbamoyl)pyrimidin-2-yl)piperidin-4-yl)methyl)-4-morpholinothieno[3,2-d]pyrimidine-6-carboxamide] | < 100 | 100 to 1000 | 232 to 238 °C
Nc1ncc(-c2nc(N3CCOCC3)c3sc(NS(=O)(=O)c4cccc(/C=C/C(=O)NO)c4)cc3n2)cn1 [Compound 218, (E)-3-(3-(N-(2-(2-aminopyrimidin-5-yl)-4-morpholinothieno[3,2-d]pyrimidin-6-yl)sulfamoyl)phenyl)-N-hydroxyacrylamide] | < 100 | < 100 | > 300 °C
CN(Cc1cc2nc(-c3cncnc3)nc(N3CCOCC3)c2s1)c1ncc(C(=O)NO)cn1 [Compound 119, N-hydroxy-2-(methyl((4-morpholino-2-(pyrimidin-5-yl)thieno[3,2-d]pyrimidin-6-yl)methyl)amino)pyrimidine-5-carboxamide] | < 100 | < 100 | 159 to 160 °C
CN(Cc1cc2nc(-c3ccc(N)c([N+](=O)[O-])c3)nc(N3CCOCC3)c2s1)c1ncc(C(=O)NO)cn1 [Compound 278, 2-(((2-(4-Amino-3-nitrophenyl)-4-morpholinothieno[3,2-d]pyrimidin-6-yl)methyl)(methyl)amino)-N-hydroxypyrimidine-5-carboxamide] | < 100 | < 100 | 202 to 206 °C
COc1ccc(-c2nc(N3CCOCC3)c3sc(NS(=O)(=O)c4ccc(/C=C/C(=O)NO)cc4)cc3n2)cn1 [Compound 222, N-Hydroxy-3-{4-[2-(6-methoxy-pyridin-3-yl)-4-morpholin-4-yl-thieno[3,2-d]pyrimidin-6-ylsulfamoyl]-phenyl}-acrylamide] | < 100 | 100 to 1000 | > 300 °C
CN(Cc1cc2nc(-c3cnc(CN)nc3)nc(N3CCOCC3)c2s1)c1ncc(C(=O)NO)cn1 [Compound 124, 2-(((2-(2-(aminomethyl)pyrimidin-5-yl)-4-morpholinothieno[3,2-d]pyrimidin-6-yl)methyl)(methyl)amino)-N-hydroxypyrimidine-5-carboxamide] | < 100 | < 100 | > 300 °C
CN(Cc1cc2nc(-c3cc(F)c(N)c(F)c3)nc(N3CCOCC3)c2s1)c1ncc(C(=O)NO)cn1 [Compound 282, 2-(((2-(4-Amino-3,5-difluorophenyl)-4-morpholinothieno[3,2-d]pyrimidin-6-yl)methyl)(methyl)amino)-N-hydroxypyrimidine-5-carboxamide] | < 100 | 100 to 1000 | 190 to 193 °C
